These are literature values, as cited in patent US20040043089A1, “Buguzhi agent and composition and methods of preparing and administering the same” (priority 2002, published 2004).

The structures appear in SMILES notation.

The conditions of this data set: literature statement.

On to `Cc1cc2cc3c(C)cc(=O)oc3c(C)c2o1` [Trioxsalen], for which the “Phototoxicity (in words)” value is recorded as “weak phototoxicity”.
Take `O=c1ccc2ccc3occc3c2o1` [angelicin]: the “Phototoxicity (in words)” value is given as “only weakly phototoxic”.
On to `COc1c2ccoc2cc2oc(=O)ccc12` [bergapten, 5-methoxypsoralen], for which the “Phototoxicity (in words)” value is reported as “phototoxic”.
Consider `COc1c2ccoc2c(OC)c2oc(=O)ccc12` [isopimpinellin], for which the “Phototoxicity (in words)” value is on record as “only weakly phototoxic”.
Take `COc1c2occc2c(OC)c2c(=O)cc(C)oc12` [khellin]: the “Phototoxicity (in words)” value is given as “weak phototoxicity”.
As to `CC(C)=CCc1c(O)ccc2ccc(=O)oc12` [osthenol], the “Phototoxicity (in words)” value was “weak phototoxicity”.
Turning to `COc1c(C(C)C)oc2cc3oc(=O)ccc3cc12` [peucedanin], the “Phototoxicity (in words)” value is recorded as “weak phototoxicity”.
In the case of `COc1c2occc2cc2ccc(=O)oc12` [xanthotoxin, 8-methoxypsoralen], the “Phototoxicity (in words)” value is recorded as “phototoxic”.
